Assay results published in patent US20090270435A1 (priority 2006, published 2009).
Structures can show the parent of a compound that is named as a salt.

Experiments:
ACC1 from rat liver = molecular target: T1, ACC1 from rat liver (Rattus norvegicus, UniProt P11497); assay: Direct inhibition of ACC1 activity (14C-bicarbonate incorporation); format: biochemical
T1 construct: The livers (for ACC1 preparation) or skeletal muscle tissue (for ACC2 preparation) are removed; from tissue; host or cells: liver of male CD rats (fasted, then fed a high sucrose diet)
Outline: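 ACC1 partially purified from livers of fasted/sucrose-refed male rats by PEG and ammonium sulfate fractionation, then preincubated 30 min at 37°C with 10 mM citrate and 1.0 mM MgCl2. Reaction ran 7 min at 37°C, stopped with HCl; acid-stable radioactivity counted by scintillation; HCl-first tubes served as blanks.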

[1] = molecular target: T2, ACC2 from rat skeletal muscle (Rattus norvegicus, UniProt Q1HEC0); assay: Direct inhibition of ACC2 activity (14C-bicarbonate incorporation); format: biochemical
T2 construct: The livers (for ACC1 preparation) or skeletal muscle tissue (for ACC2 preparation) are removed; from tissue; host or cells: skeletal muscle of male CD rats (fasted, then fed a high sucrose diet)
T2 sequence (Q1HEC0 17-2455): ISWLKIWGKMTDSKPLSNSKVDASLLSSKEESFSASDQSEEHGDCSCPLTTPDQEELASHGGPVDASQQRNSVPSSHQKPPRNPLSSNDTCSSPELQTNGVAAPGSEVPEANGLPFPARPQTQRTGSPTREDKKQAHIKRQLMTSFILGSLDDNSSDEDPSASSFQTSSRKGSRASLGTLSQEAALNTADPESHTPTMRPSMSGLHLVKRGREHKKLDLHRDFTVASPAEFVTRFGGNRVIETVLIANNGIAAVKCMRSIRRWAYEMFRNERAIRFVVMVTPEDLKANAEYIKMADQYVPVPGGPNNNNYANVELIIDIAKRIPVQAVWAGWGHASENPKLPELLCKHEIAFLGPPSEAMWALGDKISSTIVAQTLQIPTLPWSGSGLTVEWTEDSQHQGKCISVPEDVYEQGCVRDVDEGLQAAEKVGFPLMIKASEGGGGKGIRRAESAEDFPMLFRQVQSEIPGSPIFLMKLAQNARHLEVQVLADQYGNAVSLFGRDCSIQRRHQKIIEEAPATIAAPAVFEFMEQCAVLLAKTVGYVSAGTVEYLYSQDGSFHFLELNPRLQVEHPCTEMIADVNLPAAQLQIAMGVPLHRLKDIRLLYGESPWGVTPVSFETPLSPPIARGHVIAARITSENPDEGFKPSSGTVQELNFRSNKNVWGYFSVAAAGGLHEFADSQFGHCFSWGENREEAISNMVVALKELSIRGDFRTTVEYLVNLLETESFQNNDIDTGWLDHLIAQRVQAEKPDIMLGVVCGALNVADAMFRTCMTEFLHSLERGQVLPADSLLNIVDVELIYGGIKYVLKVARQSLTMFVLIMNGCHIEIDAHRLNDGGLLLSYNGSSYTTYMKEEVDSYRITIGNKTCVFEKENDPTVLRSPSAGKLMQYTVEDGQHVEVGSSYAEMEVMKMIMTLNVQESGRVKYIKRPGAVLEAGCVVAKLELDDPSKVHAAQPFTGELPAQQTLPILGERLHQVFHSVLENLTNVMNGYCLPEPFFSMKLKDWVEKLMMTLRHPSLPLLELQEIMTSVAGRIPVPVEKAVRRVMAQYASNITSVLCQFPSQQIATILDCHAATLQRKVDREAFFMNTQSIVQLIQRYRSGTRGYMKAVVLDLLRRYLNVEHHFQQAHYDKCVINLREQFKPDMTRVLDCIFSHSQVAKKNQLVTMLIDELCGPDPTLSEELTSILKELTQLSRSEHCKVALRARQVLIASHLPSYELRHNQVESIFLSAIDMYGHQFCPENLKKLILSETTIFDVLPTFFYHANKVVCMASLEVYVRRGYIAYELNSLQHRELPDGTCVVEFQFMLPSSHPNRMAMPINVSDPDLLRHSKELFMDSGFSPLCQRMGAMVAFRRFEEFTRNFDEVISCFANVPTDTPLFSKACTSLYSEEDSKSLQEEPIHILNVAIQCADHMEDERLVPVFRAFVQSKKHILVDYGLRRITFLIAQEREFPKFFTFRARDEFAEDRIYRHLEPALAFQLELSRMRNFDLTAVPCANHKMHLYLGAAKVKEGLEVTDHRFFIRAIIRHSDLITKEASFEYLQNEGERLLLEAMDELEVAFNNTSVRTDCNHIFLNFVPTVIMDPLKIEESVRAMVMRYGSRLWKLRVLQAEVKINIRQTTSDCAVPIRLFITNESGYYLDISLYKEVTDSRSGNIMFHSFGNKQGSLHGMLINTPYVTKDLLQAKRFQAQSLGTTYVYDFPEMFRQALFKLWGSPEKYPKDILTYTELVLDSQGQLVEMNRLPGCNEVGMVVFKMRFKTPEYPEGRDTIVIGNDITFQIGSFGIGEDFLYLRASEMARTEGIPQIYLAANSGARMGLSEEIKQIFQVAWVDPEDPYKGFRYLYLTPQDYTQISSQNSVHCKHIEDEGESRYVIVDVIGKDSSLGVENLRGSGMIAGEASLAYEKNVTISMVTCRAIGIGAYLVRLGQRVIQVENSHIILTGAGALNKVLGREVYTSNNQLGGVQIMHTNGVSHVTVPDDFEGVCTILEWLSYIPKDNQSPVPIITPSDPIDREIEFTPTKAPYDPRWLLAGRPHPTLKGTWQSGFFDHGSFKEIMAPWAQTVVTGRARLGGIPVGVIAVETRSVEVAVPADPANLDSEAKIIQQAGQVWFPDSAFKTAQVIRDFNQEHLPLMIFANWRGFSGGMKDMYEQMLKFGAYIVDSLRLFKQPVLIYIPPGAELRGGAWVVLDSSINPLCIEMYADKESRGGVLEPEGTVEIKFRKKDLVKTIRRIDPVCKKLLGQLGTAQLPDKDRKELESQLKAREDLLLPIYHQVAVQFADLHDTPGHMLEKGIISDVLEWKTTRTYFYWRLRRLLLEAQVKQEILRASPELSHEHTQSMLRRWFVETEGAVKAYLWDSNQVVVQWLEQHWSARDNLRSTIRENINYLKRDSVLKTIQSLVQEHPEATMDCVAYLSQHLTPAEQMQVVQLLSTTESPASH
Protocol: For example direct inhibition of ACC1 and ACC2 activity, for compounds of Formula (1) were determined using preparations of ACC1 from rat liver and ACC2 from rat skeletal muscle.
[1] Preparation of ACC1 and ACC2. ACC1 was obtained from rat liver and ACC2 was obtained from rat skeletal muscle based upon standard procedures such as those described by Thampy and Wakil (J. Biol. Chem. 260: 6318-6323; 1985) using the following method.
Male CD rats weighing 150-200 g are fasted for 2 days and then fed a high sucrose diet (AIN-76A rodent diet; Cat # D10001, Research Diets Inc., New Brunswick, N.J.), for 3 days at which time they are sacrificed by CO2 asphyxiation. The livers (for ACC1 preparation) or skeletal muscle tissue (for ACC2 preparation) are removed, rinsed in ice-cold phosphate-buffered saline (PBS), and homogenized in 5 volumes of homogenization buffer (50 mM potassium phosphate, pH 7.5, 10 mM EDTA, 10 mM 2-mercaptoethanol, 2 mM benzamidine, 0.2 mM phenylmethylsulfonylfluoride (PMSF), 5 mg/L each leupeptin, aprotinin, and antitrypsin) in a Waring® blender for 1 minute at 4° C. All subsequent operations are carried out at 4° C. The homogenate is made 3% with respect to polyethylene glycol (PEG) by the addition of 50% PEG solution and centrifuged at 20,000×g for 15 minutes. The resulting supernatant is adjusted to 5% PEG with the addition of 50% PEG solution and stirred for 5 minutes. The pellet (contains ACC activity) is collected by centrifugation at 20,000×g for 20 minutes, rinsed with Ice-cold doubly distilled water to remove excess PEG and re-suspended in one-fourth the original homogenate volume with homogenization buffer. Ammonium sulfate (200 g/liter) is slowly added with stirring. After 45 minutes the enzyme is collected by centrifugation for 30 minutes at 20,000×g, re-suspended in 10 ml of 50 mM HEPES, pH7.5, 0.1 mM DTT, 1.0 mM EDTA, and 10% glycerol and desalted on a Sephadex™ G-25 column (2.5 cm-x 50 cm) (Pharmacia, Piscataway N.J. now GE Healthcare) […] equilibrated with the same buffer. The desalted enzyme preparation is stored in aliquots at −70° C. Immediately prior to use, frozen ACC1 or ACC2 aliquots are thawed, diluted to 500 μg/ml in buffer containing 50 mM HEPES, pH7.5, 1.0 mM MgCl2, 10 mM tripotassium citrate, 2.0 mM dithiothreitol (DTT), and 0.75 mg/ml fatty acid-free bovine serum albumin (BSA) and pre-incubated at 37° C. for 30 minutes.
[2] Measurement of ACC inhibition. The procedures for measuring ACC1 inhibition and ACC2 inhibition are identical except for the source of the isozyme. For measurement of ACC activity and assessment of ACC inhibition, test compounds are dissolved in dimethylsulfoxide (DMSO) and 1 μL aliquots are placed in 0.5 ml polypropylene tubes. Control tubes contain 1 μL of DMSO alone. Tubes are incubated at 37° C. in a constant temperature water bath. […] The reaction is then initiated by the addition of 10 μL of preincubated ACC fraction prepared as described above. After 7 minutes the reaction is terminated by the addition of 50 μL of 6N HCl and a 150 μL aliquot of the reaction mixture is transferred to glass scintillation vials and evaporated to dryness at 90° C. for at least 1 hour. The dried vials are then cooled, 0.5 ml of water and 5.5 ml of Ready Safe liquid scintillation fluid (Beckman Coulter Inc., Fullerton, Calif.) are added, and the radioactivity is determined using a liquid scintillation counter. Tubes that received HCl before ACC served as blanks.
[3] Specificity for ACC1 vs ACC2 inhibition. The specificity of a compound for Inhibiting ACC1 vs ACC2 can be determined by comparing the concentration of test compound required to inhibit 50% of the activity contained in an aliquot of ACC1 as compared with the concentration of the same compound required to inhibit 50% of the activity of an aliquot of ACC2.

[2] = tested on: hepatic fatty acid synthesis; assay: Measurement of fatty acid synthesis inhibition in experimental animals ([2-14C]acetate into saponifiable lipids in liver); format: in vivo, Sprague Dawley rats; conditions: Rattus norvegicus, po; read-out: Percent Inhibition at 30 mg/kg
Description: The ACC inhibitory activity of compounds of this invention, and the salts of such compounds, can be confirmed in vivo by evaluation of their ability to inhibit hepatic fatty acid production and to stimulate whole body fatty acid oxidation using methods based on standard procedures. For example, since ACC catalyzes the first committed step in the biosynthesis of fatty acids, the in vivo activity of these compounds can be confirmed by measuring the ability of the compounds of this invention, and the salts of such compounds, to prevent the formation of radio labeled fatty acids from radio labeled acetate in the livers of treated mammals.
[1] Measurement of fatty acid synthesis inhibition in experimental animals. Incorporation of [2-^14C]acetate into saponifyable lipids in the livers of mammals (e.g. CDI mice, C57BI/6J-ob/ob mice, Sprague Dawley rats (available from Charles River Boston, Mass. or Jackson Labs Bar Harbor, Me.)) can be measured essentially as previously described for assessment of hepatic sterol synthesis (Harwood et al, Biochem. Pharmacol, 40: 1281-1293, 1990; Harwood et al. Biochem. Pharmacol. 53: 839-864, 1997) with the following modifications to allow for assessment fatty acid synthesis. For example, Sprague Dawley rats are administered a 0.1 ml per 40 g body weight of an oral bolus of vehicle (e.g. water or 0.5% methylcellulose in water)±test compound. One to four hours after compound administration, animals receive an intraperitoneal injection of 0.5 ml of [2-^14C]acetate (64 μCi/ml; 57 mCi/mmol). One hour after radiolabel administration, animals are sacrificed by CO2 asphyxiation and two, 0.75 g liver pieces are removed and saponified at […]. for 120 minutes in 1.5 ml of 2.5 M NaOH. After saponification, 2.5 ml of absolute EtOH are added to each sample and the solutions are mixed and allowed to stand overnight. Petroleum ether, 4.8 ml, is then added to each sample and the mixtures are first shaken vigorously for 2 minutes then centrifuged at 1000×g in a bench-top Sorvall®9 for 5 minutes. The resultant petroleum ether layers, which contain the nonsaponifyable lipids (e.g. cholesterol, post-squalene cholesterol precursors and other non-saponifiable lipids), are removed and discarded. The remaining aqueous layer (containing fatty acid sodium salts) is acidified to pH<2 by addition of 0.6 ml of 12 M HCl and extracted two times with 4.8 ml of petroleum ether. The pooled organic fractions (containing protonated fatty acids) are transferred to liquid scintillation vials, dried under nitrogen, dissolved in 7 ml of Aqua sol liquid scintillation fluid, and assessed for radioactivity using a liquid scintillation counter. Inhibition of fatty acid synthesis by the test compound is expressed as the concentration required to reduce by 50% the dpm [2-^14C]acetate incorporated into saponifiable lipids during the 1 hour interval between radio labeled acetate injection and CO2 asphyxiation.
Some compounds of the present were evaluated for inhibition of fatty acid synthesis as described above. As shown below, these compounds were all observed to inhibit the synthesis of fatty acids in vivo.

IC50 (ACC1 from rat liver; ACC1 from rat liver)	IC50 ([1]; ACC2 from rat skeletal muscle)	IC50 (ACC1 from rat liver; Table of Examples M1-M36)	IC50 ([1]; Table of Examples M1-M36)	Compound	inhibition at 30 mg/kg [2]
0.108 µM	–	–	–	Cc1cc2c(cc1Cl)C(=O)CC1(CCN(C(=O)c3ccc4[nH]ncc4c3)CC1)O2 [Ex. E2, 6-chloro-1′-(1H-indazol-5-ylcarbonyl)-7-methylspiro[chromene-2,4′-piperidin]-4(3H)-one]	30.7%
–	–	0.105 µM	0.434 µM	Cc1cc2c(cc1Cl)C(=O)CC1(CCN(C(=O)c3cccc(-c4cc[nH]n4)c3)CC1)O2 [Ex. M3, 6-chloro-7-methyl-1′-[3-(1H-pyrazol-3-yl)benzoyl]spiro[chromene-2,4′-piperidin]-4(3H)-one]	–
0.0432 µM	0.0917 µM	–	–	CCOc1ccc2c(c1)C(=O)CC1(CCN(C(=O)c3cccc(-c4cc[nH]n4)c3)CC1)O2 [Ex. N2, 6-ethoxy-1′-[3-(1H-pyrazol-3-yl)benzoyl]spiro[chromene-2,4′-piperidin]-4(3H)-one]	–
0.0483 µM	0.0548 µM	–	–	CC(C)Oc1ccc2c(c1)C(=O)CC1(CCN(C(=O)c3cccc(-c4cc[nH]n4)c3)CC1)O2 [Ex. N3, 6-isopropoxy-1′-[3-(1H-pyrazol-3-yl)benzoyl]spiro[chromene-2,4′-piperidin]-4(3H)-one]	–
0.0965 µM	–	–	–	Cc1cc2c(cc1C)C(=O)CC1(CCN(C(=O)c3ccc4[nH]ncc4c3)CC1)O2 [Ex. E1, 1′-(1H-indazol-5-ylcarbonyl)-6,7-dimethylspiro[chromene-2,4′-piperidin]-4(3H)-one]	30.9%
–	–	0.816 µM	1.86 µM	N#Cc1ccc2c(c1)C(=O)CC1(CCN(C(=O)c3cccc(-c4cc[nH]n4)c3)CC1)O2 [Ex. M33, 4-oxo-1′-[3-(1H-pyrazol-3-yl)benzoyl]3,4-dihydrospiro[chromene-2,4′-piperidine]-6-carbonitrile]	–

The remaining lines, values behind:

Compound	IC50 (ACC1 from rat liver; ACC1 from rat liver)	IC50 ([1]; ACC2 from rat skeletal muscle)	IC50 (ACC1 from rat liver; Table of Examples M1-M36)	IC50 ([1]; Table of Examples M1-M36)	inhibition at 30 mg/kg [2]
Cc1cc2c(cc1Cl)C(=O)CC1(CCN(C(=O)c3cc(Cl)c4[nH]ncc4c3)CC1)O2 [Ex. B4, 6-chloro-7-methyl-1′-[(7-chloro-1H-indazol-5-yl)carbonyl]spiro[chromene-2,4′-piperidin]-4(3H)-one]	0.0568 µM	0.127 µM	–	–	–
COc1ccc2c(c1)C(=O)CC1(CCN(C(=O)c3cc(C)c4[nH]ncc4c3)CC1)O2 [Ex. A7, 6-methoxy-1′-[(7-methyl-1H-indazol-5-yl)carbonyl]spiro[chromene-2,4′-piperidin]-4(3H)-one trifluoroacetic acid salt]	0.0325 µM	0.138 µM	–	–	–
Cc1cc2c(cc1Cl)C(=O)CC1(CCN(C(=O)c3cc(C)c4[nH]ncc4c3)CC1)O2 [Ex. A13, 6-chloro-7-methyl-1′-[(7-methyl-1H-indazol-5-yl)carbonyl]spiro[chromene-2,4′-piperidin]-4(3H)-one]	0.045 µM	–	–	–	64%
COc1ccc2c(c1)C(=O)CC1(CCN(C(=O)c3cc(Cl)c4[nH]ncc4c3)CC1)O2 [Ex. B5, 1′-[(7-chloro-1H-indazol-5-yl)carbonyl]-6-methoxyspiro[chromene-2,4′-piperidin]-4(3H)-one]	0.081 µM	0.231 µM	–	–	–
Cc1cc(C(=O)N2CCC3(CC2)CC(=O)c2cc(OC(C)C)ccc2O3)cc2cn[nH]c12 [Ex. A3, 6-isopropoxy-1′-[(7-methyl-1H-indazol-5-yl)carbonyl]spiro[chromene-2,4′-piperidin]-4(3H)-one]	0.0145 µM	0.0172 µM	–	–	–
CCOc1ccc2c(c1)C(=O)CC1(CCN(C(=O)c3cc(C)c4[nH]ncc4c3)CC1)O2 [Ex. A4, 6-ethoxy-1′-[(7-methyl-1H-indazol-5-yl)carbonyl]spiro[chromene-2,4′-piperidin]-4(3H)-one]	0.0195 µM	0.0299 µM	–	–	–
Cc1cc(C(=O)N2CCC3(CC2)CC(=O)c2cc(OC(F)(F)F)ccc2O3)cc2cn[nH]c12 [Ex. A12, 1′-[(7-methyl-1H-indazol-5-yl)carbonyl]-6-(trifluoromethoxy)spiro[chromene-2,4-piperidin]-4(3H)-one]	0.0419 µM	–	–	–	38.7%
CCOc1ccc2c(c1)C(=O)CC1(CCN(C(=O)c3cc(Cl)c4[nH]ncc4c3)CC1)O2 [Ex. B3, 1′-[(7-chloro-1H-indazol-5-yl)carbonyl]-6-ethoxyspiro[chromene-2,4′-piperidin]-4(3H)-one]	0.0214 µM	0.0343 µM	–	–	–
Cc1cc(C(=O)N2CCC3(CC2)CC(=O)c2cc(Cl)c(F)cc2O3)cc2cn[nH]c12 [Ex. A21, 6-chloro-7-fluoro-1′-[(7-methyl-1H-indazol-5-yl)carbonyl]spiro[chromene-2,4′-piperidin]-4(3H)-one]	0.0966 µM	–	–	–	59.5%
CC(C)Oc1ccc2c(c1)C(=O)CC1(CCN(C(=O)c3cc(Cl)c4[nH]ncc4c3)CC1)O2 [Ex. B2, 1′-[(7-chloro-1H-indazol-5-yl)carbonyl]-6-isopropoxyspiro[chromene-2,4′-piperidin]-4(3H)-one]	0.0161 µM	0.0311 µM	–	–	–
